Biological target: T1, hGLP (Homo sapiens, UniProt Q9H9B1)
T1 construct: expressed in transfected cells; host or cells: Cos-7
Assay: Methylation of HA-hGLP in Cos-7 cells (pan met-K immunoprecipitation/immunoblot)
Assay type: cell-based, African green monkey
Conditions: 2 μM, 24 h
Experimental: Cos-7 or A549 cells were seeded on 10-cm dishes the day before transfection. Cells were transiently transfected (where indicated) using Lipofectamine 2000 (Invitrogen) with 5 μg each of the indicated plasmids according to the manufacturer's protocol. […] Protein extracts were incubated with 1 μg of the indicated primary antibodies overnight at 4° C. with shaking. Protein A/G Plus Agarose (Santa Cruz sc-2003) beads were added and the mixture was incubated 2 hr at 4° C. The immunoprecipitates were separated on SDS-PAGE. […] In immunoprecipitation experiments 3% of the input of each sample was analyzed by immunoblot using the antibodies listed. […]

T1 sequence (Q9H9B1 whole entry): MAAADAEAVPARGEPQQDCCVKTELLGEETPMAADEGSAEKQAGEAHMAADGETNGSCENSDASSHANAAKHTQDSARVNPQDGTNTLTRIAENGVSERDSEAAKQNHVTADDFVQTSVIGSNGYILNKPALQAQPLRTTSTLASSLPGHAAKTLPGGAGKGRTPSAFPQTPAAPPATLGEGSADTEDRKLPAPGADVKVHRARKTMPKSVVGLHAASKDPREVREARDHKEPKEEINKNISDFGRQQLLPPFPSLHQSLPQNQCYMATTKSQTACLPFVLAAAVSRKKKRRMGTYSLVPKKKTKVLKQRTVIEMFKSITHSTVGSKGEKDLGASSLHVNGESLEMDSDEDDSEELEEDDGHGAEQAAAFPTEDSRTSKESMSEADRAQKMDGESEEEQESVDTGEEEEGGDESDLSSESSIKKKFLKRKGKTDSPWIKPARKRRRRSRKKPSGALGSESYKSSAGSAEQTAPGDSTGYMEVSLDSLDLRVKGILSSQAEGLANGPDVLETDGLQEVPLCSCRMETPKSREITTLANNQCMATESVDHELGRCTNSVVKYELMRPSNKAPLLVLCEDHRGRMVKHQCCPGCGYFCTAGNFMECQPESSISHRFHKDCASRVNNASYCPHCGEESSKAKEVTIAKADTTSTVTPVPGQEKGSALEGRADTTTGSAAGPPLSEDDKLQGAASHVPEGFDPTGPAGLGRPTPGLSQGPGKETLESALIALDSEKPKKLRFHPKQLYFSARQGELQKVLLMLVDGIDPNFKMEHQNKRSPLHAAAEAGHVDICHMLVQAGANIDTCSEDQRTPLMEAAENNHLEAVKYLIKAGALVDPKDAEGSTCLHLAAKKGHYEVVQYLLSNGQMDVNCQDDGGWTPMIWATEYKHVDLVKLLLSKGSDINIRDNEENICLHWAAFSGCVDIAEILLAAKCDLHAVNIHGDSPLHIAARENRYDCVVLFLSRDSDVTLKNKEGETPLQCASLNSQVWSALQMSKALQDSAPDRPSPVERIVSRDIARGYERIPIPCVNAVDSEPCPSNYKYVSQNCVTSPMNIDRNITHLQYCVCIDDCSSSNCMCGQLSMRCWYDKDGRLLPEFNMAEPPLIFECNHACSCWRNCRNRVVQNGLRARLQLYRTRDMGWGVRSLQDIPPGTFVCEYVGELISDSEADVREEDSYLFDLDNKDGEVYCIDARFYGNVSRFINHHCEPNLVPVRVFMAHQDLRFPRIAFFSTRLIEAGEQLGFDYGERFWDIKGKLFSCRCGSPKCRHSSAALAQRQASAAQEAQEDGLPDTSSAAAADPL

**Q.** Which “GLP methylation in cells” value does the source give for `COc1cc2c(NC3CCN(C4CCCCC4)CC3)nc(N3CCCN(C(C)C)CC3)nc2cc1OCCCN1CCCCC1` [UNC0646] here?
**A.** Its value is “reduced”.
